One assay addresses T1, human HDAC1 (Homo sapiens, UniProt Q13547).
T1 construct: made in house; host or cells: HeLa (ATCC CCL-2), mammalian cells
The assay is described as follows: Homo sapiens HDAC1 inhibition assay (Fluor-de-Lys, enzymatic). It is filed as biochemical. The conditions noted are these: human HDAC enzymatic assay; read-out: hHDAC IC50. The method, then: Biology Homo sapiens HDAC1 Inhibition Assay Overview:
The aim of the assay is to evaluate the inhibition of the deacetylase activity of human HDAC1. To such goal an acetylated substrate is added to the enzyme mix; the resulting enzymatic product is converted to a fluorescent molecule by the addition the enzyme trypsine (developer solution). Fluorescence intensity is inversely proportional to the rate of inhibition of the enzyme (as indicated in the material section below).
Reagents of the HDAC Fluorescent Activity Assay are purchased from Enzo Life Sciences (http://www.enzolifesciences.com/BML-AK500/fluor-de-lys-hdac-fluorometric-activity-assay-kit/) and feature the Fluor-de-Lys™ Substrate/Developer System.
c) Trichostatin A (TSA) Stock
TSA (Sigma-Aldrich, T8552) is provided as a 10 mM stock solution in 100% dimethylsulfoxide (DMSO).
Diluted Substrate Solution
The final concentration in the assay is 20 μM.
Diluted Developer Solution
2 μM [final] TSA to this solution increases its ability to stop the reaction.
The HDAC1 enzyme is diluted in assay buffer prior to each use from a fresh aliquot of enzyme.
The final concentration in the assay is 1-2 nM.
Test compounds should be prepared in 100% DMSO and transferred to the assay by a nano volume dispenser to reach the appropriate concentration and the appropriate DMSO concentration (0.25%) in the reaction.

Assay [1] deals with Plasmodium falciparum 3D7. The assay is described as follows: P. falciparum growth inhibition assay (Pf-LDH). It counts as cell-based. The note with it: Plasmodium falciparum, Erythrocyte; P. falciparum 3D7 infected erythrocytes, 72 h incubation, PfLDH readout. The method, then:
Basic culture of Plasmodium falciparum 3D7 parasites (Malaria Research and Reference Reagent Resource Center (MR4), MR4 Number: MRA-102).
Starting with a culture with a parasitemia of about 10% (and 5% hematocrit), 0.5 ml of the culture is placed in a fresh 100 mm petri dish with 0.95 ml of fresh erythrocytes (50% hematocrit) and 8.55 ml of culture medium, giving a new starting parasitemia of 0.5%. The petri dish is then incubated at 37° C. in a humidified gas-tight plastic box flushed with a gas mixture consisting of 93% N2, 4% CO2, and 3% O2. The culture medium is changed daily. The supernatant is removed by gently tipping the dish without disturbing the settled cells and aspirating the medium with a Pasteur pipette connected to a vacuum pump. A small amount of the concentrated cells is taken to prepare a blood smear for determination of the parasitemia. Normally, the cultures are split twice a week. If the parasites are growing very slowly then fresh erythrocytes are added to the culture no later than after 7 days. The cultures are then split 1:2 if the parasitemia is lower than 0.5%. To avoid the necessity of daily medium change on weekends, a culture with a 2.5% hematocrit and 0.1-0.2% parasitemia is set up and can be left for 3 days without medium change.
Standard medium consists of RPMI 1640, supplemented with 25 mM HEPES, 24 mM NaHCO3, 0.36 mM hypoxanthine, 100 μg/ml Neomycin, 5 g/1 Albumax® II, and washed human red blood cells (rbcs) A+.
P. falciparum Growth Inhibition Assay (Pf-LDH)
Compounds of the invention were assessed for in vitro antimalarial activity against a cloroquine sensitive (3D7) strain of the malaria parasite Plasmodium falciparum, using a lactate dehydrogenase (PfLDH) assay.
EC50 Determination by Pf-LDH Assay
384 plates (where compounds to be tested are dispensed) with 25 μl of parasite inoculum (parasitemia: 0.25%, hematocrit: 2%) are incubated at 37° C. in an atmosphere of 4% CO2, 3% O2, 93% N2. After 72 h of incubation, plates are frozen at −70° C. overnight and thawed at room temperature for at least 4 h. To evaluate PfLDH activity, 70 μl of freshly made reaction mix (143 mM sodium L-lactate, 143 μM 3-acetyl pyridine adenine dinucleotide (APAD), 178.75 μM Nitro Blue tetrazolium chloride (NBT), 286 μg/ml diaphorase (2.83 U/ml), 0.7% Tween 20, 100 mM Tris-HCl pH 8.0) is dispensed using a Multidrop Combi dispenser. Plates are shaken to ensure mixing and absorbance at 650 nm is monitored in a plate reader after 10 min of incubation at room temperature.
Negative controls (0% Effect) are produced by addition of DMSO to the proper wells.
Positive controls (100% Effect) are produced by addition of 150 nM Artemisinin (Sigma-Aldrich, 361593)
After result normalization using positive and negative controls, compound potency is determined by fitting the following equation: % inh=Ymin+(Ymax−Ymin)/(1+(X/EC50)^slope)) Where: • Ymin=minimum percentage effect • Ymax=maximum percentage effect • EC50=the concentration of the compound at which 50% effect is reached • Slope=the slope of the curve calculated at the EC50 Histone Hyperacetylation and Immunodetection of Altered Histone Modifications Assay

T1 sequence (Q13547 whole entry): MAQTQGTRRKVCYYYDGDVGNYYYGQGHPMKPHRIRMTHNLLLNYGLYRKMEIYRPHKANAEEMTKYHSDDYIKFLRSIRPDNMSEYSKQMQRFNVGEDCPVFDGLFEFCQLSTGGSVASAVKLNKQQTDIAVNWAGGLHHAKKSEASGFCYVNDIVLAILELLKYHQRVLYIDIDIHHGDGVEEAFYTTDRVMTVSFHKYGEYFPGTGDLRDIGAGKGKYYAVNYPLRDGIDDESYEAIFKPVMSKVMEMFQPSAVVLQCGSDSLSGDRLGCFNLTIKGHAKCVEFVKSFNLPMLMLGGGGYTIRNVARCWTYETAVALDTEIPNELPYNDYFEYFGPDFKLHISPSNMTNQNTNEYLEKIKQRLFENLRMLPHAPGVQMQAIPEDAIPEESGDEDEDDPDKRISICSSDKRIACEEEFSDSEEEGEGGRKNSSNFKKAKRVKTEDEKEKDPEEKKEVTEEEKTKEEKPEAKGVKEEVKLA

As for `CNC(=O)CCCCC[C@H](NC(=O)CC1=CSC2=NCCCN12)c1ncc(-c2ccc3ccccc3c2)[nH]1` [Entry 202, (S)-7-(2-(6,7-dihydro-5H-thiazolo[3,2-a]pyrimidin-3-yl)acetamido)-N-methyl-7-(5-(naphthalen-2-yl)-1H-imidazol-2-yl)heptanamide], the IC50 on human HDAC1 fell in the range of 1000 to 5000 nM. Further, in assay [1], the EC50 was < 1000 nM.
For `CNC(=O)CCCCC[C@H](NC(=O)c1cncs1)c1ncc(-c2ccc(-n3nc(C)cc3C)cc2)[nH]1` [Entry 81, (S)-N-(1-(5-(4-(3,5-dimethyl-1H-pyrazol-1-yl)phenyl)-1H-imidazol-2-yl)-7-(methylamino)-7-oxoheptyl)thiazole-5-carboxamide], the IC50 at human HDAC1 was > 5000 nM. The EC50 in assay [1] is > 5000 nM.
As for `CNC(=O)CCCCC[C@H](NC(=O)c1csc(-c2cccnc2)n1)c1ncc(-c2cc3ccccc3nc2OC)[nH]1` [Entry 30], the 50% inhibitory concentration (IC50) on human HDAC1 is > 5000 nM. Also, the concentration for a half-maximal effect (EC50) in assay [1] lay within 1000 to 5000 nM.
For `CNC(=O)CCCCC[C@H](NC(=O)[C@@H]1CCCN2CCCC[C@H]12)c1ncc(-c2ccc3ccncc3c2)[nH]1` [Entry 206, (1R,9aR)-N-((S)-1-(5-(isoquinolin-7-yl)-1H-imidazol-2-yl)-7-(methylamino)-7-oxoheptyl)octa-hydro-1H-quinolizine-1-carboxamide], the IC50 on human HDAC1 was in the range of 1000 to 5000 nM. The molecule further registered an EC50 in assay [1] of 1000 to 5000 nM.
For `CNC(=O)CCCCC[C@H](NC(=O)c1cncs1)c1ncc(-c2ccc(CN)cc2)[nH]1` [Entry 60, (S)-N-(1-(5-(4-(amino-methyl)phenyl)-1H-imidazol-2-yl)-7-(methylamino)-7-oxoheptyl)thiazole-5-carboxamide], the IC50 on human HDAC1 was 1000 to 5000 nM. Also, the EC50 in assay [1] is > 5000 nM.
The like results for `COc1ccc2[nH]c(C)c(CC(=O)N[C@@H](CCCCCC(N)=O)c3nnc(-c4ccc5ccccc5c4)o3)c2c1` [Entry 174, (S)-7-(2-(5-methoxy-2-methyl-1H-indol-3-yl)acetamido)-7-(5-(naphthalen-2-yl)-1,3,4-oxadiazol-2-yl)heptanamide] were, in that order, < 1000 nM and 1000 to 5000 nM.
The matching figures for `CNC(=O)CCCCC[C@H](NC(=O)c1cccnc1)c1ncc(-c2ccc3ccccc3c2)[nH]1` [Entry 175, (S)-N-(7-(methylamino)-1-(5-(naphthalen-2-yl)-1H-imidazol-2-yl)-7-oxo-heptyl)nicotinamide]: < 1000 nM and < 1000 nM.
Regarding `CNC(=O)CCCCC[C@H](NC(=O)C1CN(C)C1)c1ncc(-c2cc3ccccc3[nH]c2=O)[nH]1` [Entry 18, (S)-1-methyl-N-(7-(methylamino)-7-oxo-1-(5-(2-oxo-1,2-dihydroquinolin-3-yl)-1H-imidazol-2-yl)heptyl)azetidine-3-carboxamide], the IC50 at human HDAC1 lay within 1000 to 5000 nM. For the same molecule, the EC50 in assay [1] is > 5000 nM.
As for `CNC(=O)CCCCC[C@H](NC(=O)c1nnc(C)o1)c1ncc(-c2cc3ccccc3nc2OC)[nH]1` [Entry 77, (S)-N-(1-(5-(2-methoxyquinolin-3-yl)-1H-imidazol-2-yl)-7-(methylamino)-7-oxoheptyl)-5-methyl-1,3,4-oxadiazole-2-carboxamide], at human HDAC1, the IC50 was 1000 to 5000 nM. Further, the EC50 in assay [1] was in the range of 1000 to 5000 nM.
For the molecule `CNC(=O)CCCCC[C@H](NC(=O)Cn1cnc2ccccc21)c1ncc(-c2ccc3ccccc3c2)[nH]1` [Entry 44, (S)-7-(2-(1H-benzo[d]imidazol-1-yl)acetamido)-N-methyl-7-(5-(naphthalen-2-yl)-1H-imidazol-2-yl)heptanamide], the IC50 at human HDAC1 is < 1000 nM. For the same molecule, in assay [1], the EC50 was 1000 to 5000 nM.
As to `CNC(=O)CCCCC[C@H](NC(=O)C12CCN(CC1)CC2)c1ncc(-c2ccc(Cl)c(C)c2)[nH]1` [Entry 181, (S)-N-(1-(5-(4-chloro-3-methylphenyl)-1H-imidazol-2-yl)-7-(methylamino)-7-oxo-heptyl)quinuclidine-4-carboxamide], the IC50 on human HDAC1 was in the range of 1000 to 5000 nM. Further, in assay [1], the concentration for a half-maximal effect (EC50) is > 5000 nM.
For `CNC(=O)CCCCC[C@H](NC(=O)Cc1cnc2ccccn12)c1ncc(-c2ccc3ccncc3c2)[nH]1` [Entry 15, (S)-7-(2-(imidazo[1,2-a]pyridin-3-yl)acetamido)-7-(5-(isoquinolin-7-yl)-1H-imidazol-2-yl)-N-methylheptanamide], the IC50 at human HDAC1 was < 1000 nM. Besides, in assay [1], the EC50 was in the range of 1000 to 5000 nM.
`CNC(=O)CCCCC[C@H](NC(=O)c1cc2cc(OC)ccc2[nH]1)c1ncc(-c2ccc3ccccc3c2)[nH]1` [Entry 73, (S)-5-methoxy-N-(7-(methylamino)-1-(5-(naphthalen-2-yl)-1H-imidazol-2-yl)-7-oxoheptyl)-1H-indole-2-carboxamide]: the IC50 at human HDAC1 was in the range of 1000 to 5000 nM. The EC50 in assay [1] was 1000 to 5000 nM.
Take `CNC(=O)CCCCC[C@H](NC(=O)C12CC3CC(CC(C3)C1)C2)c1ncc(-c2ccc(C(F)(F)F)cc2)[nH]1` [Entry 100]: the concentration for half-maximal inhibition (IC50) on human HDAC1 is > 5000 nM. The molecule also gave an EC50 in assay [1] of 1000 to 5000 nM.
As for `CNC(=O)CCCCC[C@H](NC(=O)c1ccccc1-n1cnnn1)c1ncc(-c2ccc3ccccc3c2)[nH]1` [Entry 87, (S)-N-(7-(methylamino)-1-(5-(naphthalen-2-yl)-1H-imidazol-2-yl)-7-oxoheptyl)-2-(1H-tetrazol-1-yl)benzamide], the IC50 on human HDAC1 lay in the range of 1000 to 5000 nM. This molecule also registered an EC50 in assay [1] of 1000 to 5000 nM.
`CNC(=O)CCCCC[C@H](NC(=O)c1cncs1)c1ncc(-c2cc3ccccc3cc2OC)[nH]1` [Entry 97, (S)-N-(1-(5-(3-methoxynaphthalen-2-yl)-1H-imidazol-2-yl)-7-(methylamino)-7-oxoheptyl)thiazole-5-carboxamide]: on human HDAC1, the IC50 was < 1000 nM. The EC50 in assay [1] was < 1000 nM.
Consider `CNC(=O)CCCCC[C@H](NC(=O)C1(F)CCN(C)CC1)c1ncc(-c2ccc3ccncc3c2)[nH]1` [Entry 111, (S)-4-fluoro-N-(1-(5-(isoquinolin-7-yl)-1H-imidazol-2-yl)-7-(methylamino)-7-oxoheptyl)-1-methylpiperidine-4-carboxamide], for which the IC50 on human HDAC1 lay within 1000 to 5000 nM. The EC50 in assay [1] was > 5000 nM.
Consider `CNC(=O)CCCCC[C@H](NC(=O)CCc1nnc(C)[nH]1)c1ncc(-c2ccc3ccncc3c2)[nH]1` [Entry 167], for which the IC50 on human HDAC1 fell in the range of 1000 to 5000 nM. Also, the EC50 in assay [1] was in the range of 1000 to 5000 nM.
Consider `CNC(=O)CCCCC[C@H](NC(=O)c1cncs1)c1ncc(-c2ccc3cc(OC)cnc3c2)[nH]1` [Entry 14], for which the IC50 at human HDAC1 fell in the range of 1000 to 5000 nM. The molecule also showed an EC50 in assay [1] of 1000 to 5000 nM.
For `CNC(=O)CCCCC[C@H](NC(=O)c1cncs1)c1ncc(-c2ccc(Cl)cc2OC)[nH]1` [Entry 57, (S)-N-(1-(5-(4-chloro-2-methoxyphenyl)-1H-imidazol-2-yl)-7-(methylamino)-7-oxoheptyl)thiazole-5-carboxamide], the IC50 at human HDAC1 lay within 1000 to 5000 nM. The EC50 in assay [1] fell in the range of 1000 to 5000 nM.
On to `CNC(=O)CCCCC[C@H](NC(=O)C1CN(C)C1)c1ncc(-c2cc3ccccc3nc2OC)o1` [Entry 71, (S)-N-(1-(5-(2-methoxyquinolin-3-yl)oxazol-2-yl)-7-(methylamino)-7-oxoheptyl)-1-methylazetidine-3-carboxamide], for which the IC50 on human HDAC1 is < 1000 nM. For the same molecule, the EC50 in assay [1] was < 1000 nM.

Values taken from patent publication US9365541B2, “Compounds for use in the treatment of parasitic diseases” (IRBM—SCIENCE PARK S.P.A., priority 2012, dated 2016).
